Test results published in patent publication US9056837B2, “Heterocycle compounds and uses thereof” (Intra-Cellular Therapies, Inc., priority 2007, dated 2015).

Assay: Mouse brain/plasma distribution assay for tissue levels of test compounds
Assay type: in vivo, C57b1/6 black mice
Conditions: C57Bl/6, mouse, brain, sc; mice, subcutaneous single injection of 1 mg (10 mM DMSO solution); four hours post-administration; measured minus 2% of plasma
Method: Compounds are administered subcutaneously to C57b1/6 black mice as a single injection of 1 mg using a 10 mM DMSO solution. After 2 or 4 hours, the mice are sacrificed. Trunk blood is collected into tubes with potassium-EDTA as anticoagulant and centrifuged at 5000×g for 10 min. The upper plasma phase is decanted from cellular components. Whole brain is sonicated with 20 mM Tris-HCl, 135 mM NaCl, pH 7.4 buffer, giving at 200 mg/mL (w/v) homogenate. Brain homogenate or plasma is extracted with 2 volumes of acetonitrile and clarified by centrifugation at 15,000×g for 20 min. Extracts are separated by HPLC using a Waters Alliance 2695 separations module with a Sunfire™ C18 column (3.5 micron, 2.1×50 mm) and a gradient of methanol over 15 min in a mobile phase of 0.1% formic acid. The separation is monitored by a Micromass Quattro Micro triple-quadrupole mass-spectrometric detector. Compound standardization is performed by methods analogous to those previously reported, e.g., by Zhao, M., et al. (2005) J Chromatogr B Analyt Technol Biomed Life Sci 819, 73-80; and Appels, N. M et al. (2005) Rapid Commun Mass Spectrom 19, 2187-2192. Brain concentration=measured−2% of plasma B/P ratio=brain concentration/plasma concentration

For `Cc1ccc(NC(=O)c2ccc(CN3CCN(C)CC3)cc2)cc1Nc1nccc(-c2cccnc2)n1` [imatinib], the concentration at 4 h was < 100 nM.
